Reference: patent EP4520331A1, “PHARMACEUTICAL COMPOSITION COMPRISING TRPV4 INHIBITOR FOR USE IN THE PREVENTION OR TREATMENT OF CEREBRAL CAVERNOUS MALFORMATIONS (CCM)” (Université Grenoble Alpes, priority 2023, dated 2025)

Experiments:
Format in all cases: cell-based, Human
[1] = system: CCM2-depleted endothelial cells; test: Ki67 immunofluorescence staining (proliferative marker); details: 400nM added to siCCM2 ECs; Figure 1E
Method: (§1) Pooled Human Umbilical Vein Endothelial Cells (HUVEC) were obtained from Pelobiotech. Upon reception, HUVEC at P0 were expanded over 2 passages in 100µg/ml collagen 1 (from rat tail, BD) coated flasks in complete EGM-2 medium (Lonza) supplemented with 100 U/ml penicillin and 100 µg/ml streptomycin at 37°C in a 5% CO2 - 3% O2 humidified chamber. HUVEC at passage 3 were transfected twice at 24 h-intervals with 30 nM siRNA and Lipofectamine RNAi max (Life Technologies, ref. 13778-150) according to the manufacturer's instructions in OptiMEM at 37°C in a regular 5% CO2 in a humidified chamber. For double transfections, 30 nM of each siRNA duplexes (Dharmacon smartpool ON-TARGET plus Thermo Scientific) was used: Non-targeting siRNA #1 (ref. D-001810-01), CCM2 siRNA (ref. L-014728-01) and TRPV4 siRNA (ref. L-004195-00).
Transfected HUVEC were seeded at 3x10^4 cells (sparsed, for Ki67 staining) or […] (confluent, for VE-cadherin staining) in 24-well plates on coverslips coated with 10 µg/ml fibronectin (from human plasma, Sigma Aldrich) and incubated overnight (Ki67 experiment) or for 48h (VE-cadherin experiment) in complete EBM-2 medium in presence or absence of the calcium channels inhibitors dissolved in DMSO. […] The percentage of Ki67 positive cells was counted manually out of more than 130 cells total.

[2] = system: CCM2-depleted endothelial cells; test: xCELLigence proliferation assay (RTCA impedance); details: 400nM added to siCCM2 ECs; RTCA xCelligence impedance over 24h; Figure 1B
Method: as §1
Proliferation assay was performed using the xCELLigence Real-Time Cell Analysis (RTCA) DP instrument in combination with E-plate 16 (ACEA Biosciences) coated with 100µL of 100µg/mL collagen 1 (from rat tail) for 30 min at 37°C and washed 2 times with PBS 1X. 50 µL of complete EBM-2 medium was added and baseline without cells was made with RTCA software. 2.5x103 transfected HUVEC (4 wells per condition) were seeded 24h after the second round of transfection in 50µL of complete EBM-2-medium. […] Impedance measurements were recorded every 5 min during 24h. […]

[3] = system: CCM2-depleted endothelial cells; test: Gelatin degradation assay (ECM degradation); details: 800 nM; siCCM2 HUVEC; Figure 3B
Method: as §1, with “For double transfections, 30 nM of each siRNA duplexes (Dharmacon smartpool ON-TARGET plus Thermo Scientific) was used: Non-targeting siRNA #1 (ref. D-001810-01), CCM2 siRNA (ref. L-014728-01) and TRPV4 siRNA (ref. L-004195-00).” left out
Coverslips in 24 well-plates were coated with gelatin-Alexa488 dye as previously described (70). siCT and siCCM2 HUVEC were seeded 24h after the second siRNA transfection at 3x10^4/well in OptiMEM medium in presence or absence of the calcium channels inhibitors overnight at 37°C in a 5% CO2 incubator. […] For a quantitative analysis of the degradative skill of siRNA transfected cells, 10 images per condition were randomly acquired and were converted to binary images using B&W thresholding on Imaged. The total area of the black zones corresponding to the total area of degradation of the fluorescent gelatin was measured.

O=C(NC1(c2ccccc2)CC1)c1c(CN2CCC(N3CCCCC3)CC2)c(-c2cccc(C(F)(F)F)c2)nc2cc(Br)ccc12 [GSK2193874, 3-([1,4'-Bipiperidin]-1'-ylmethyl)-7-bromo-N-(1-phenylcyclopropyl)-2-[3-(trifluoromethyl)phenyl]-4-quinolinecarboxamide]
proliferative marker Ki67 [1]: restoration | proliferation rate [2]: restoration | CCM2-depleted ECs capacity to degrade the ECM such as gelatin [3]: inhibits
